One test concerns T1, h20S proteasome.
T1 construct: purchased Boston Biochem
Description: STD and WaterLOGSY NMR interaction study. Conditions: Tris-T4 175 μM, 20S 860 nM; 50 mM Hepes, 100 mM NaCl, 1mM DTT. The test is classed as binding, human. The method, then: For NMR interaction studies, Saturation Transfer Difference (STD) and WaterLogsy (WL) experiments were employed to derive the ligand binding epitope.
As a starting point, the Tris-T4 structure has been analyzed by ^1H NMR spectroscopy in the buffer (50 mM Hepes, 100 mM NaCl and 1mM DTT). The ^1H chemical shift assignments of Tris-T4 are reported in Supplementary Figure S1. Both STD- and WL-NMR spectra of Tris-T4 were acquired in a 200-fold excess over the h20S proteasome.
Then, to identify the ligand moiety more closely interacting with the protein, we evaluated and compared the saturation effects of the individual Tris-T4 proton resonances (ISTD = I0 − Isat). The signal showing the largest ISTD/I0 value, the para phenyl proton, was normalized to 100% (Figure 7). The relative degree of saturation of the individual protons, normalized to that of the para phenyl proton, was then used to compare the STD effect.

The test system of test [1] is purified rabbit 20S proteasome. Set-up: method as in PMID 22642538. Conditions: 100 µM fluorogenic substrate; apparent inhibition; read-out: IC50, chymotryptic-like activity; cited from earlier work.
In the next test the test system is T2, human 20S proteasome.
T2 construct: purchased Boston Biochem
Description: 20S proteasome chymotryptic-like activity assay (Suc-LLVY-AMC), steady-state kinetics vs Tris-T4 concentration. The test is classed as biochemical. The source says:
In order to better characterize the effect of Tris-T4 on the functional properties of the 20S proteasome, we have carried out an investigation on the steady-state chymotryptic-like activity of h20S as a function of Tris-T4 concentration, employing different substrate concentrations.
(§1) In addition, for the sake of clarity, in Scheme 1 some of these parameters are reported as interaction ratios, namely α = KAU/KAL, β = KBU/KBL, γ = KBU/KAU, and δ = KBL/KAL. Finally, σA and σB refer to the eventual effect of Tris-T4 binding on the catalytic rate-limiting step kcat of either state A and/or state B (see Scheme 1). […] (1) kobscat=kcatA⋅(1+KAL⋅[Tris_T4])^n+LL⋅kcatB⋅(1+KBL⋅[Tris_T4])^n/(1+KAL⋅[Tris_T4])^n+LL⋅(1+KBL⋅[Tris_T4])^n (2) Kobsm=K0m⋅(1+KAU⋅[Tris_T4])^n+LU⋅(1+KBI⋅[Tris_T4])^m⋅(1+KBU⋅[Tris_T4])^n/(1+KAL⋅[Tris_T4])^n+LL⋅(1+KBL⋅[Tris_T4])^n (3) kobscat/Kobsm=kcatA/KmA⋅(1+KAU⋅[Tris_T4])^n+LU⋅kcatB/KmB⋅(1+KBI⋅[Tris_T4])^m⋅(1+KBU⋅[Tris_T4])^n/(1+KAU⋅[Tris_T4])^n+LU⋅(1+KBI⋅[Tris_T4])^m⋅(1+KBU⋅[Tris_T4])^n
(§2) 20S proteasome activity assays were performed in vitro in the assay buffer (i.e., 50 mM TrisHCl, pH 8.0) by mixing 20S proteasome (2 nM) with increasing concentrations (0.1–10 µM) of Tris-T4 incubating for 30 min at 37 °C. Then, varying concentrations (between 5 µM and 100 µM) of fluorogenic peptide were added in a 384 multiwell black plate. A minimum of three replicates were performed for each data point. […] Data relative to CP activities at different substrate concentrations have been analyzed by a double reciprocal Lineweaver–Burk plot, according to the following equation:(4) [E0]/v=Km/±kcatx 1/[S]+1/kcat where (E0) is the enzyme concentration, ν is the observed velocity (expressed as moles of substrate cleaved per time interval unit), (S) is the substrate concentration, Km is the Michaelis–Menten equilibrium constant, referring to the affinity for substrate, and kcat is the velocity of the rate-limiting step. All curve fitting and statistical analysis were carried out using the non-linear fitting tool (NLFit) and MatLab (The Math works Inc., Natick, MA, USA). The parametric data fitting was based on nonlinear regression and the method of least squares. Model discrimination and choice was based on the goodness of fit. The goodness of fit was evaluated by visual examination of the fitted curves, 95% confidence bounds for the fitted coefficients and statistical analysis for determining the square of the multiple correlation coefficient (R^2).The Gibbs free energy difference (ΔG^0 = −RT lnK) was calculated using the values of the equilibrium constants reported in Table 1 and corresponds to −ΔG^0 of the considered conformational transition equilibrium as depicted in Scheme 1.

Another test relates to T3, wt y20S proteasome.
T3 construct: Yeast CP 20S wild-type and the mutant form, α3ΔN, were purified as previously reported; made in house; host or cells: yeast
Described as above. The test is classed as biochemical, yeast.
Source text: (§3) Then, we have extended the investigation on the functional modulation of the chymotryptic-like activity by Tris-T4 porphyrin also to wt y20S proteasome and to its mutant α3ΔN, which is characterized by a significant enhancement of the enzymatic activity, ascribed to disruption of the gate closing mechanism.
as §1, §2

Test [2] concerns T4, yeast α3ΔN mutant of 20S proteasome.
T4 construct: Yeast CP 20S wild-type and the mutant form, α3ΔN, were purified as previously reported; made in house; host or cells: yeast
The description is as above. The class given is biochemical.
Source text: as §3, §1, §2

The next test concerns h20S. Conditions: cited from earlier work.
The mark [3] stands for this setting: Michaelis-Menten constant in state A.
Where [4] appears, read: Michaelis-Menten constant in state B (stabilized by Tris-T4).
[5] abbreviates: state A, substrate-bound ES complex.
The mark [6] stands for this setting: state B, substrate-bound ES complex.

T4 sequence (P23639 whole entry, stated change not applied): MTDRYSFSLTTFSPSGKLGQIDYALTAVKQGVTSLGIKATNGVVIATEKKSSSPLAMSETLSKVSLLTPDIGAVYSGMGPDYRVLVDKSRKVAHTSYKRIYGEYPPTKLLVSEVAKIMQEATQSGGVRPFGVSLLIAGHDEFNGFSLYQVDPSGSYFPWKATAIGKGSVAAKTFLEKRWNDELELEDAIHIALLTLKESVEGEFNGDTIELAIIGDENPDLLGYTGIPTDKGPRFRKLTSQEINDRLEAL
T4 sequence (P32379 whole entry, stated change not applied, further chain): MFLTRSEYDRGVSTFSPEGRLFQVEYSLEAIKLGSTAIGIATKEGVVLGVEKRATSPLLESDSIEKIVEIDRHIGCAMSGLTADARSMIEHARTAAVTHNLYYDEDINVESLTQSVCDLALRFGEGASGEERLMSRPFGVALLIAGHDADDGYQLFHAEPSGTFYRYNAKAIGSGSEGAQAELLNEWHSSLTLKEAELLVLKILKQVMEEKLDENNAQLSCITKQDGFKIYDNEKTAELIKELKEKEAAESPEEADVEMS
T4 sequence (P40303 whole entry, stated change not applied, further chain): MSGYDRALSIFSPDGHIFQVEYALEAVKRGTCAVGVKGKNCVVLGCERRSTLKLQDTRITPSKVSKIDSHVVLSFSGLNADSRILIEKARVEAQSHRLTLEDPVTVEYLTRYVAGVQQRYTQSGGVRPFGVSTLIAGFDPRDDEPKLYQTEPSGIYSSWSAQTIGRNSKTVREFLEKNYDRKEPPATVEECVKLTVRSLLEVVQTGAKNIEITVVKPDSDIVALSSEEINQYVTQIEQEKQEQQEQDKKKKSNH
T4 sequence (P40302 whole entry, stated change not applied, further chain): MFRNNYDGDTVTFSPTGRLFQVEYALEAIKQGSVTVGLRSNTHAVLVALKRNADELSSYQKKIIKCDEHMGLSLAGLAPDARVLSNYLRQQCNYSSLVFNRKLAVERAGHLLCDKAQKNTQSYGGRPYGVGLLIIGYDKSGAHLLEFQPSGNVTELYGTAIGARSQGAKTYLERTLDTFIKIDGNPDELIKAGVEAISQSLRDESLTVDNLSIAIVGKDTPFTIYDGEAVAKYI
T4 sequence (P21243 whole entry, stated change not applied, further chain): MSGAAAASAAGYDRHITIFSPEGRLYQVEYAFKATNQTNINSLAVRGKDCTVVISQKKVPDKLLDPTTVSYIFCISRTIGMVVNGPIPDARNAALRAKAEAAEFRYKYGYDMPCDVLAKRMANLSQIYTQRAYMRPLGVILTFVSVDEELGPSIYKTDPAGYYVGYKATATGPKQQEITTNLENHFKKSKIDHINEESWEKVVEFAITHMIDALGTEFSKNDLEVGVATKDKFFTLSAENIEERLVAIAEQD

A word on the IC50: it is the concentration that inhibits the measured activity by half. As for `C[n+]1ccc(-c2c3nc(c(-c4cc[n+](C)cc4)c4ccc([nH]4)c(-c4cc[n+](C)cc4)c4nc(c(-c5ccccc5)c5ccc2[nH]5)C=C4)C=C3)cc1` [Tris-T4, 5-(phenyl)-10,15,20-(tri N-methyl-4-pyridyl) porphyrin], the “STD and WL-NMR spectra, interaction” value with h20S proteasome is listed as “positive signals”. Further, in test [1], the concentration for half-maximal inhibition (IC50) was 920 ± 60 nM. Moreover, the “effect on chymotryptic-like activity” value in the test with human 20S proteasome ((Substrate) < 25 µM, Tris-T4 0-10 μM) is “activator”; in test [2] (Tris-T4 0-5 μM, no activation), “only the competitive inhibitory effect is observed”. The figures for the “m, number of competitive inhibitory sites” value (in the test with human 20S proteasome (Eq 1-3); in the test on wt y20S proteasome (Eq 1-3); in test [2] (Eq 1-3)) were 0, 1 and 1, respectively. The KmA is 1.95(± 0.37) × 10^−3 M in the test with human 20S proteasome (setting [3]), 1.17(± 0.22) × 10^−4 M with wt y20S proteasome (setting [3]) and 4.1(± 0.6) × 10^−3 M in test [2] (setting [3]). Moreover, the KmB with human 20S proteasome (setting [4]) was 1.5(± 0.3) × 10^−4 M; in the test on wt y20S proteasome (setting [4]), 9.04(± 1.82) × 10^−6 M; in test [2] (Michaelis-Menten constant in state B), 1.07(± 0.27) × 10^−2 M. Also, the “LU, equilibrium constant between A and B” value was 3.0(± 0.5) × 10^−6 (3) with human 20S proteasome (absence of the substrate, floating parameter of the two-state model); 6.0(± 1.0) × 10^−4 (2) with wt y20S proteasome (absence of the substrate); 3.9(± 0.6) × 10^−2 in test [2] (absence of the substrate). Moreover, the “Tris-T4 concentration at which activation is essentially completed” value stood at 3 µM with human 20S proteasome (chymotryptic-like activity) and 1 µM with wt y20S proteasome (chymotryptic-like activity). In addition, the “n, number of concerted allosteric binding sites for Tris-T4” value in the test with human 20S proteasome (minimum value, Eq 1-3) was 3; in the test on wt y20S proteasome (Eq 1-3) it was 2; in test [2] (Eq 1-3), 2. Further, the kcatA in the test with human 20S proteasome (rate-limiting step in state A, fit of Eq 1-3, substrate ≤ 25 μM, pH 8.0, 37 °C) came out at 11.5 ± 1.3 s⁻¹; in the test on wt y20S proteasome (rate-limiting step in state A, fit of Eq 1-3), 0.95 ± 0.15 s⁻¹; in test [2] (state A, same kcat imposed for both states) it was 49.5 ± 5.6 s⁻¹. The kcatB in the test on human 20S proteasome (rate-limiting step in state B (stabilized by Tris-T4), fit of Eq 1-3) turned out to be 0.32 ± 0.05 s⁻¹; with wt y20S proteasome (rate-limiting step in state B (stabilized by Tris-T4)), 0.17 ± 0.03 s⁻¹; in test [2] (state B, same kcat imposed for both states) it was 49.5 ± 5.6 s⁻¹. Besides, the “KAU, affinity constant for Tris-T4” value in the test with human 20S proteasome (state A, absence of substrate) was 2.0(± 0.3) × 10^4 M^−1; in the test on wt y20S proteasome (state A, absence of substrate), 3.0(± 0.5) × 10^5 M^−1; in test [2] (state A, absence of substrate) it was 3.0(± 0.5) × 10^5 M^−1. Further, the “KAL, affinity constant for Tris-T4” value with human 20S proteasome (setting [5]) is recorded as 1.2(± 0.3) × 10^4 M^−1; in test [2] (setting [5]) it was 1.2(± 0.4) × 10^5 M^−1. The “KBU, affinity constant for Tris-T4” value in the test with human 20S proteasome (state B, absence of substrate) is 8.2(± 1.2) × 10^7 M^−1; with wt y20S proteasome (state B, absence of substrate), 9.0(± 1.8) × 10^7 M^−1; in test [2] (state B, absence of substrate), 9.0(± 1.8) × 10^7 M^−1. Besides, the “KBL, affinity constant for Tris-T4” value is reported as 1.35(± 0.28) × 10^8 M^−1 with human 20S proteasome (setting [6]), 1.3(± 0.3) × 10^8 M^−1 in the test with wt y20S proteasome (setting [6]) and 1.3(± 0.3) × 10^8 M^−1 in test [2] (setting [6]). Moreover, the “LL, equilibrium constant between A and B” value with human 20S proteasome (substrate-bound ES complex) is recorded as 3.9(± 0.6) × 10^−5 (3); with wt y20S proteasome (substrate-bound ES complex), 7.8(± 1.5) × 10^−3 (2); in test [2] (substrate-bound ES complex) it was 1.5(± 1.0) × 10^−2. Further, in the test on human 20S proteasome (substrate-bound state), the “free energy contribution of each Tris-T4 binding step (RTln(KBL/KAL))” value stood at 5.71 kcal/mol. Besides, the “free energy contribution of each Tris-T4 binding step (RTln(KBU/KAU))” value with human 20S proteasome (substrate-free conformation) is 5.11 kcal/mol. The “free energy for the A → B transition in favor of the B functional state (RTlnLUγ^3)” value in the test with human 20S proteasome (substrate-free porphyrin triple-bound enzyme) amounted to 7.5 kcal/mol. In the test on wt y20S proteasome (above 1 μM Tris-T4, overwhelms the activation), the “effect on chymotryptic-like activity at higher Tris-T4 concentrations” value is “competitive inhibitory effect”. The “KBI, affinity constant for Tris-T4 to the inhibitory competitive site” value (in the test with wt y20S proteasome (state B); in test [2] (state B)) was 2.5(± 0.4) × 10^6 M^−1 throughout.
On to `C[n+]1ccc(-c2c3nc(c(-c4cc[n+](C)cc4)c4ccc([nH]4)c(-c4cc[n+](C)cc4)c4nc(c(-c5cc[n+](C)cc5)c5ccc2[nH]5)C=C4)C=C3)cc1` [H2T4, meso-tetrakis (4-N-methylpyridyl)-porphyrin], for which the “mode of action on h20S” value in the test on h20S is on record as “competitive inhibitor”.
As to `C[n+]1ccc(-c2ccc(-c3c4nc(c(-c5ccc(-c6cc[n+](C)cc6)cc5)c5ccc([nH]5)c(-c5ccc(-c6cc[n+](C)cc6)cc5)c5nc(c(-c6ccc(-c7cc[n+](C)cc7)cc6)c6ccc3[nH]6)C=C5)C=C4)cc2)cc1` [pTMPyPP4, meso-tetrakis (4-N-methylphenyl-pyridyl)-porphyrin], the “mode of action on h20S” value in the test with h20S is reported as “allosteric inhibitor”.

These data come from paper PMC7582714, “Cooperative Binding of the Cationic Porphyrin Tris-T4 Enhances Catalytic Activity of 20S Proteasome Unveiling a Complex Distribution of Functional States” (International Journal of Molecular Sciences, 2020).
